Experimental data reported in ChEMBL document CHEMBL5724914, “Linking interpersonal differences in gut microbiota composition and drug biotransformation activity” (2024).

Test: (§1) The drug is tested on Z-025 corresponding to rabbit gut metagenome with ENA study accession number: PRJEB37062 and ENA sample accession number: ERS12561824 for biotransformation under anaerobic condition. The drug concentrations were measured over 9 timepoints collected between 0 and 24 hours of incubation by liquid-chromatography-coupled mass spectrometry (LC–MS)
Conditions: 2 µM
Further: call rule not given here.

SMILES	Bacterial Biotransformation
CNS(=O)(=O)Cc1ccc2[nH]cc(CCN(C)C)c2c1.O=C(O)CCC(=O)O [SUMATRIPTAN SUCCINATE]	Compound NOT metabolized
CC[C@@H](CO)NC(=O)[C@@H]1C=C2c3cccc4c3c(cn4C)C[C@H]2N(C)C1.O=C(O)/C=C\C(=O)O [METHYSERGIDE MALEATE]	Compound NOT metabolized

Test: as §1, with “Z-023” for “Z-025”, “to” for “to rabbit gut”, “ERS12561822” for “ERS12561824”
Conditions: 2 µM

SMILES	Bacterial Biotransformation
CNS(=O)(=O)Cc1ccc2[nH]cc(CCN(C)C)c2c1.O=C(O)CCC(=O)O [SUMATRIPTAN SUCCINATE]	Compound NOT metabolized
CC[C@@H](CO)NC(=O)[C@@H]1C=C2c3cccc4c3c(cn4C)C[C@H]2N(C)C1.O=C(O)/C=C\C(=O)O [METHYSERGIDE MALEATE]	Compound NOT metabolized

Test: as §1, with “Z-022” for “Z-025”, “mouse” for “rabbit”, “ERS12561821” for “ERS12561824”
Conditions: 2 µM

SMILES	Bacterial Biotransformation
CNS(=O)(=O)Cc1ccc2[nH]cc(CCN(C)C)c2c1.O=C(O)CCC(=O)O [SUMATRIPTAN SUCCINATE]	Compound NOT metabolized
CC[C@@H](CO)NC(=O)[C@@H]1C=C2c3cccc4c3c(cn4C)C[C@H]2N(C)C1.O=C(O)/C=C\C(=O)O [METHYSERGIDE MALEATE]	Compound NOT metabolized

Test: as §1, with “Z-021” for “Z-025”, “to” for “to rabbit gut”, “ERS12561820” for “ERS12561824”
Conditions: 2 µM

SMILES	Bacterial Biotransformation
CNS(=O)(=O)Cc1ccc2[nH]cc(CCN(C)C)c2c1.O=C(O)CCC(=O)O [SUMATRIPTAN SUCCINATE]	Compound NOT metabolized
CC[C@@H](CO)NC(=O)[C@@H]1C=C2c3cccc4c3c(cn4C)C[C@H]2N(C)C1.O=C(O)/C=C\C(=O)O [METHYSERGIDE MALEATE]	Compound NOT metabolized

Test: as §1, with “Z-011” for “Z-025”, “mouse” for “rabbit”, “ERS12561811” for “ERS12561824”
Conditions: 2 µM

SMILES	Bacterial Biotransformation
CNS(=O)(=O)Cc1ccc2[nH]cc(CCN(C)C)c2c1.O=C(O)CCC(=O)O [SUMATRIPTAN SUCCINATE]	Compound NOT metabolized
CC[C@@H](CO)NC(=O)[C@@H]1C=C2c3cccc4c3c(cn4C)C[C@H]2N(C)C1.O=C(O)/C=C\C(=O)O [METHYSERGIDE MALEATE]	Compound NOT metabolized

Test: as §1, with “Z-006” for “Z-025”, “mouse” for “rabbit”, “ERS12561806” for “ERS12561824”
Conditions: 2 µM

SMILES	Bacterial Biotransformation
CNS(=O)(=O)Cc1ccc2[nH]cc(CCN(C)C)c2c1.O=C(O)CCC(=O)O [SUMATRIPTAN SUCCINATE]	Compound NOT metabolized
CC[C@@H](CO)NC(=O)[C@@H]1C=C2c3cccc4c3c(cn4C)C[C@H]2N(C)C1.O=C(O)/C=C\C(=O)O [METHYSERGIDE MALEATE]	Compound NOT metabolized

Test: as §1, with “WLS-098” for “Z-025”, “human” for “rabbit”, “ERS12561754” for “ERS12561824”
Conditions: 2 µM

SMILES	Bacterial Biotransformation
CNS(=O)(=O)Cc1ccc2[nH]cc(CCN(C)C)c2c1.O=C(O)CCC(=O)O [SUMATRIPTAN SUCCINATE]	Compound metabolized
CC[C@@H](CO)NC(=O)[C@@H]1C=C2c3cccc4c3c(cn4C)C[C@H]2N(C)C1.O=C(O)/C=C\C(=O)O [METHYSERGIDE MALEATE]	Compound NOT metabolized

Test: as §1, with “WLS-052” for “Z-025”, “human” for “rabbit”, “ERS12561747” for “ERS12561824”
Conditions: 2 µM

SMILES	Bacterial Biotransformation
CNS(=O)(=O)Cc1ccc2[nH]cc(CCN(C)C)c2c1.O=C(O)CCC(=O)O [SUMATRIPTAN SUCCINATE]	Compound NOT metabolized
CC[C@@H](CO)NC(=O)[C@@H]1C=C2c3cccc4c3c(cn4C)C[C@H]2N(C)C1.O=C(O)/C=C\C(=O)O [METHYSERGIDE MALEATE]	Compound NOT metabolized

Test: as §1, with “WLS-039” for “Z-025”, “human” for “rabbit”, “ERS12561746” for “ERS12561824”
Conditions: 2 µM

SMILES	Bacterial Biotransformation
CNS(=O)(=O)Cc1ccc2[nH]cc(CCN(C)C)c2c1.O=C(O)CCC(=O)O [SUMATRIPTAN SUCCINATE]	Compound NOT metabolized
CC[C@@H](CO)NC(=O)[C@@H]1C=C2c3cccc4c3c(cn4C)C[C@H]2N(C)C1.O=C(O)/C=C\C(=O)O [METHYSERGIDE MALEATE]	Compound NOT metabolized

Test: as §1, with “WLS-027” for “Z-025”, “human” for “rabbit”, “ERS12561744” for “ERS12561824”
Conditions: 2 µM

SMILES	Bacterial Biotransformation
CNS(=O)(=O)Cc1ccc2[nH]cc(CCN(C)C)c2c1.O=C(O)CCC(=O)O [SUMATRIPTAN SUCCINATE]	Compound NOT metabolized
CC[C@@H](CO)NC(=O)[C@@H]1C=C2c3cccc4c3c(cn4C)C[C@H]2N(C)C1.O=C(O)/C=C\C(=O)O [METHYSERGIDE MALEATE]	Compound NOT metabolized

Test: as §1, with “WLS-010” for “Z-025”, “human” for “rabbit”, “ERS12561743” for “ERS12561824”
Conditions: 2 µM

SMILES	Bacterial Biotransformation
CNS(=O)(=O)Cc1ccc2[nH]cc(CCN(C)C)c2c1.O=C(O)CCC(=O)O [SUMATRIPTAN SUCCINATE]	Compound NOT metabolized
CC[C@@H](CO)NC(=O)[C@@H]1C=C2c3cccc4c3c(cn4C)C[C@H]2N(C)C1.O=C(O)/C=C\C(=O)O [METHYSERGIDE MALEATE]	Compound NOT metabolized

Conditions: human gut metagenome, 24 h, 2 µM

SMILES	Bacterial Biotransformation
CNS(=O)(=O)Cc1ccc2[nH]cc(CCN(C)C)c2c1.O=C(O)CCC(=O)O [SUMATRIPTAN SUCCINATE]	Compound NOT metabolized
CC[C@@H](CO)NC(=O)[C@@H]1C=C2c3cccc4c3c(cn4C)C[C@H]2N(C)C1.O=C(O)/C=C\C(=O)O [METHYSERGIDE MALEATE]	Compound NOT metabolized

Conditions: human gut metagenome, 24 h, 2 µM
Remark: another data set of the same source

SMILES	Bacterial Biotransformation
CNS(=O)(=O)Cc1ccc2[nH]cc(CCN(C)C)c2c1.O=C(O)CCC(=O)O [SUMATRIPTAN SUCCINATE]	Compound NOT metabolized
CC[C@@H](CO)NC(=O)[C@@H]1C=C2c3cccc4c3c(cn4C)C[C@H]2N(C)C1.O=C(O)/C=C\C(=O)O [METHYSERGIDE MALEATE]	Compound NOT metabolized

Conditions: human gut metagenome, 24 h, 2 µM
Remark: another data set of the same source

SMILES	Bacterial Biotransformation
CNS(=O)(=O)Cc1ccc2[nH]cc(CCN(C)C)c2c1.O=C(O)CCC(=O)O [SUMATRIPTAN SUCCINATE]	Compound NOT metabolized
CC[C@@H](CO)NC(=O)[C@@H]1C=C2c3cccc4c3c(cn4C)C[C@H]2N(C)C1.O=C(O)/C=C\C(=O)O [METHYSERGIDE MALEATE]	Compound NOT metabolized

Conditions: human gut metagenome, 24 h, 2 µM
Remark: another data set of the same source

SMILES	Bacterial Biotransformation
CNS(=O)(=O)Cc1ccc2[nH]cc(CCN(C)C)c2c1.O=C(O)CCC(=O)O [SUMATRIPTAN SUCCINATE]	Compound metabolized
CC[C@@H](CO)NC(=O)[C@@H]1C=C2c3cccc4c3c(cn4C)C[C@H]2N(C)C1.O=C(O)/C=C\C(=O)O [METHYSERGIDE MALEATE]	Compound NOT metabolized

Conditions: human gut metagenome, 24 h, 2 µM
Remark: another data set of the same source

SMILES	Bacterial Biotransformation
CNS(=O)(=O)Cc1ccc2[nH]cc(CCN(C)C)c2c1.O=C(O)CCC(=O)O [SUMATRIPTAN SUCCINATE]	Compound NOT metabolized
CC[C@@H](CO)NC(=O)[C@@H]1C=C2c3cccc4c3c(cn4C)C[C@H]2N(C)C1.O=C(O)/C=C\C(=O)O [METHYSERGIDE MALEATE]	Compound NOT metabolized

Conditions: human gut metagenome, 24 h, 2 µM
Remark: another data set of the same source

SMILES	Bacterial Biotransformation
CNS(=O)(=O)Cc1ccc2[nH]cc(CCN(C)C)c2c1.O=C(O)CCC(=O)O [SUMATRIPTAN SUCCINATE]	Compound NOT metabolized
CC[C@@H](CO)NC(=O)[C@@H]1C=C2c3cccc4c3c(cn4C)C[C@H]2N(C)C1.O=C(O)/C=C\C(=O)O [METHYSERGIDE MALEATE]	Compound NOT metabolized

Conditions: human gut metagenome, 24 h, 2 µM
Remark: another data set of the same source

SMILES	Bacterial Biotransformation
CNS(=O)(=O)Cc1ccc2[nH]cc(CCN(C)C)c2c1.O=C(O)CCC(=O)O [SUMATRIPTAN SUCCINATE]	Compound NOT metabolized
CC[C@@H](CO)NC(=O)[C@@H]1C=C2c3cccc4c3c(cn4C)C[C@H]2N(C)C1.O=C(O)/C=C\C(=O)O [METHYSERGIDE MALEATE]	Compound NOT metabolized

Conditions: human gut metagenome, 24 h, 2 µM
Remark: another data set of the same source

SMILES	Bacterial Biotransformation
CNS(=O)(=O)Cc1ccc2[nH]cc(CCN(C)C)c2c1.O=C(O)CCC(=O)O [SUMATRIPTAN SUCCINATE]	Compound NOT metabolized
CC[C@@H](CO)NC(=O)[C@@H]1C=C2c3cccc4c3c(cn4C)C[C@H]2N(C)C1.O=C(O)/C=C\C(=O)O [METHYSERGIDE MALEATE]	Compound NOT metabolized

Conditions: human gut metagenome, 24 h, 2 µM
Remark: another data set of the same source

SMILES	Bacterial Biotransformation
CNS(=O)(=O)Cc1ccc2[nH]cc(CCN(C)C)c2c1.O=C(O)CCC(=O)O [SUMATRIPTAN SUCCINATE]	Compound metabolized
CC[C@@H](CO)NC(=O)[C@@H]1C=C2c3cccc4c3c(cn4C)C[C@H]2N(C)C1.O=C(O)/C=C\C(=O)O [METHYSERGIDE MALEATE]	Compound metabolized
